Measurements published in paper PMC12040169 (PLOS Biology, 2025).

Experiment: in vitro
Conditions: human, hela cells, % viability

Row | SMILES | viability at 28.5 h, 10 µM [%]
1 | Cc1cc(C(=O)Nc2ccc(-c3nc4ccccc4s3)c(O)c2)ccc1[N+](=O)[O-] [CBK262820] | 92.6
2 | O=C(CCN1C(=O)/C(=C/c2ccc(F)cc2)SC1=S)NNC(=O)c1ccncc1 [CBK262821] | 92.4
3 | O=C(O)c1ccc(CN2C(=O)c3ccc(C(=O)O)cc3C2=O)cc1 [CBK262823] | 93.7
4 | COc1cc(Cl)cc(/C=N\NC(=O)C2C(=O)NCC2c2ccccc2)c1O (centres unmarked) [CBK262825] | 91.8
5 | C/C(=N\NC(=O)c1nc(-c2ccccc2)cc(-c2ccccc2)n1)c1ccc(F)cc1 [CBK262826] | 110
6 | CC1CCCN(CC(O)COCc2ccc3c(c2)OCO3)C1 (centres unmarked) [CBK262830C] | 105
7 | O=C(N/N=C\c1ccc(-c2ccc(Cl)c(Cl)c2)o1)C1COc2cc3ccccc3cc2O1 (centres unmarked) [CBK262834] | 99
8 | COc1c(O)ccc(/C=N\NC(=O)C2COc3cc4ccccc4cc3O2)c1[N+](=O)[O-] (centres unmarked) [CBK262836] | 86.9
9 | Cc1ccc(NC(=O)CN2C(=O)c3ccccc3C2=O)c(C(=O)O)c1 [CBK262837] | 87.5
10 | CC(Oc1cccc2cccnc12)C(=O)N/N=C/c1ccc(-c2ccc(Br)cc2)o1 (centres unmarked) [CBK262838] | 93.4
11 | O=C(NC(C(=O)N/N=C/c1ccc(O)cc1)c1n[nH]c(=O)c2ccccc12)c1ccccc1 (centres unmarked) [CBK262839] | 116
12 | CC1(C)NC(=O)N(CC(O)COc2ccc([N+](=O)[O-])cc2)C1=O (centres unmarked) [CBK262840] | 98.8
13 | COc1cc(/C=N/Nc2nc(-c3ccccc3)cc(-c3ccc(OC)c(OC)c3)n2)ccc1O [CBK262841] | 52.2
14 | Cc1nnc(SCC(=O)N/N=C/c2coc3ccccc3c2=O)n1-c1ccccc1 [CBK262842] | 90.3
15 | O=C(O)c1ccccc1-c1ccccc1C(=O)Nc1ccccc1-c1ccccc1 [CBK262843] | 84.4
16 | CC1=CC(C)C2(COC(=O)Nc3ccccc3)COC(c3cccnc3)C1C2C (centres unmarked) [CBK262844] | 86.2
17 | O=C(Nc1cccc(-c2nc3ncccc3o2)c1)c1ccc(Cl)c([N+](=O)[O-])c1 [CBK262845] | 88.8
18 | CCOc1cccc(/C=N\NC(=O)C2COc3cc4ccccc4cc3O2)c1O (centres unmarked) [CBK262846] | 110
19 | O=C(NC(C(=O)N/N=C/c1coc2ccccc2c1=O)c1n[nH]c(=O)c2ccccc12)c1ccccc1 (centres unmarked) [CBK262847] | 95.3
20 | O=[N+]([O-])c1ccc(N2CCNCC2)cc1NCCO [CBK262851] | 75.1
21 | O=c1oc(-c2cccc(F)c2)nc2ccc(Cc3ccc4nc(-c5cccc(F)c5)oc(=O)c4c3)cc12 [CBK262856] | 120

Row | SMILES | viability at 28.5 h, 10 µM [%]
22 | CC(=O)Nc1ccc(C(=O)Nc2ccc(-c3nc4ccccc4[nH]3)cc2)cc1 [CBK262857] | 84.9
23 | NNc1nc(-c2ccc(Br)cc2)nc2ccccc12 [CBK262860] | 94.6
24 | Cc1ccccc1NC(=O)Nc1ccc(OCc2ccccc2)cc1 [CBK262861] | 108
25 | O=C(CCN1C(=O)/C(=C/c2ccc(F)cc2)SC1=S)NNC(=O)c1cccnc1 [CBK262862] | 104
26 | O=C(CSc1nnc(-c2ccccc2)n1-c1ccccc1)N/N=C/c1cccc2cccnc12 [CBK262863] | 91
27 | Cc1cc(C)nc(N/N=C/c2cn(-c3ccccc3)nc2-c2ccc([N+](=O)[O-])cc2)n1 [CBK262864] | 90.5
28 | O=C(CSc1nnc(-c2ccncc2)n1-c1ccccc1)N/N=C/c1coc2ccccc2c1=O [CBK262866] | 101
29 | CCOc1ccc(C(=O)Nc2ccc(Cc3ccncc3)cc2)cc1[N+](=O)[O-] [CBK262867] | 114
30 | Cc1onc(-c2ccccc2)c1C(=O)NCCCn1ccnc1 [CBK262870] | 96.2
31 | Cc1ccc(C(C)(C)CC(C)NC2C3CC4CC(C3)CC2C4)o1 (centres unmarked) [CBK262871] | 93.9
32 | Cc1ccc(C(C)(C)CC(C)NCc2cccc(C(F)(F)F)c2)o1 (centres unmarked) [CBK262872] | 95
33 | Cc1ccc(C(C)(C)CC(C)NCc2ccc(Cl)cc2)o1 (centres unmarked) [CBK262873] | 95.8
34 | Cc1ccccc1-n1nnnc1C(c1ccccc1)N(C)Cc1cccc([N+](=O)[O-])c1 (centres unmarked) [CBK262878] | 91
35 | COc1ccc(CN2CCCn3c4c(c5cc(C)ccc53)CCCC42)cc1OCc1ccccc1 (centres unmarked) [CBK262879] | 96.4
36 | COc1cc(/C=N/NC(=O)c2n[nH]c3c2CCC3)ccc1O [CBK262881] | 109
37 | O=C(N/N=C/c1ccccn1)c1n[nH]c2c1CCCC2 [CBK262882] | 90.8
38 | O=C(N/N=C/c1c[nH]c2ccccc12)c1cc(-c2ccc3ccccc3c2)[nH]n1 [CBK262885] | 54.8
39 | Cc1n[nH]c(C)c1CCC(=O)N/N=C/c1ccccn1 [CBK262887] | 92.9
40 | Cc1n[nH]c(C)c1CCC(=O)N/N=C/c1ccncc1 [CBK262888] | 112
41 | COc1ccc(/C=N/NC(=O)CCc2c(C)n[nH]c2C)cc1O [CBK262894] | 93.6
42 | N=c1n(CCN2CCOCC2)c2ccccc2n1CC(O)c1cccs1 (centres unmarked) [CBK262895C] | 99.1

Row | SMILES | viability at 28.5 h, 10 µM [%]
43 | CCCC1=NN(c2ccc([N+](=O)[O-])cc2)C(=O)/C1=C/NC1CC(C)(C)NC(C)(C)C1 [CBK262896] | 84.9
44 | OCCCn1c(-c2ccc(Cl)cc2)cn2c3ccccc3nc12 [CBK262900] | 103
45 | COC(=O)c1ccc(/C=N/NC(=O)CCc2c(C)n[nH]c2C)cc1 [CBK262904] | 117
46 | CC(C)(C)c1cc(-n2c(-c3cccnc3)nc3ccccc32)cc(C(C)(C)C)c1O [CBK262907] | 103
47 | N=c1n(CCN2CCCCC2)c2ccccc2n1CC(O)c1cccs1 (centres unmarked) [CBK262908C] | 94.9
48 | CN1CCc2c(sc3c2C(=O)NC(/C=C\c2ccc([N+](=O)[O-])cc2)N3)C1 (centres unmarked) [CBK262909] | 86.3
49 | Cc1n[nH]c(C)c1CCC(=O)N/N=C/c1cccc(O)c1 [CBK262910] | 97.7
50 | CCOc1ccc(C(O)Cn2c(=N)n(CCN3CCCCC3)c3ccccc32)cc1 (centres unmarked) [CBK262913C] | 111
51 | N=c1n(CC(=O)O)c2ccccc2n1Cc1ccccc1Cl [CBK262917B] | 90.3
52 | COc1cc2c(cc1OC)CN(/C=N/c1sc3c(c1C#N)CC(C)(C)NC3(C)C)CC2 [CBK262918] | 105
53 | Cc1cc(=O)n2ncnc2n1COCCO [CBK262919] | 97.4
54 | CC1=NN(c2ccc([N+](=O)[O-])cc2)C(=O)/C1=C/NCCN1CCN(C(=O)c2ccc(F)cc2)CC1 [CBK262920] | 95.1
55 | CC1=NNC(=O)C1CCC(=O)N/N=C/C(Br)=C/c1ccccc1 (centres unmarked) [CBK262929] | 100
56 | O=C(Cn1nnc2ccccc21)N/N=C\c1cccc(Cl)c1Cl [CBK262931] | 92.4
57 | C/C(=N/OCC(=O)Nc1oc(-c2ccccc2)c(-c2ccccc2)c1C#N)c1cccs1 [CBK262932] | 89.6
58 | Cc1ccc(S(=O)(=O)NCCCN2CCOCC2)cc1C [CBK262934] | 96.6
59 | c1ccc(OCc2nc3c4c(-c5ccccc5)c(-c5ccccc5)oc4ncn3n2)cc1 [CBK262939] | 94.6
60 | CNC(=S)N(Cc1ccc(S(N)(=O)=O)cc1)C1CC(=O)N(c2ccc(OC)cc2)C1=O (centres unmarked) [CBK262940] | 95.1
61 | CC1(C)CC(=O)C2=C(C1)c1c(ccc3ccccc13)NC2c1ccc(N2CCC(Cc3ccccc3)CC2)c([N+](=O)[O-])c1 (centres unmarked) [CBK262944] | 94.2
62 | CCn1c2ccccc2c2ccc(/C=N/NC(=O)c3ccc(O)cc3O)cc21 [CBK262948] | 56.9
63 | O=C(COc1ccc(Cl)cc1Br)NNC(=O)c1ccc(O)cc1 [CBK262950] | 95.5

Row | SMILES | viability at 28.5 h, 10 µM [%]
64 | O=C(NCc1ccccc1)C(=O)NNC(=O)C12CC3CC(CC(C3)C1)C2 [CBK262951] | 94.9
65 | COc1cc2c(cc1NC(=O)C/C(C)=N/NC(=O)c1ccoc1C)oc1ccccc12 [CBK262953] | 112
66 | O=C(NCCCn1ccnc1)c1ccccc1C(=O)c1ccccc1 [CBK262954] | 93.2
67 | COc1ccccc1CC(=O)NNC(=O)c1ccco1 [CBK262956] | 91.6
68 | C/C(CC(=O)Nc1ccccc1C(N)=O)=N\NC(=O)c1ccoc1C [CBK262957] | 100
69 | COc1cc2c(cc1NC(=O)c1cccc([N+](=O)[O-])c1)oc1ccccc12 [CBK262958] | 94.4
70 | O=C(COc1ccccc1)Nc1ccc2oc(-c3cccnc3)nc2c1 [CBK262959] | 92.1
71 | COc1cc(/C=C2/C(=O)N(c3ccc(Cl)c(C(=O)O)c3)N=C2C)ccc1Oc1nc2c(c(=O)n(C)c(=O)n2C)n1C [CBK262962] | 91.1
72 | Cc1ccc(N2NC(=O)/C(=C/c3ccc(-c4ccc5c(c4)C(=O)NC5=O)o3)C2=O)cc1C [CBK262963] | 81.6
73 | O=C1NN(c2ccc(Br)cc2)C(=O)/C1=C\c1ccc(-c2ccc3c(c2)C(=O)NC3=O)o1 [CBK262968] | 111
74 | O=C1NN(c2cccc(Cl)c2)C(=O)/C1=C\c1ccc(-c2ccc3c(c2)C(=O)NC3=O)o1 [CBK262970] | 93.4
75 | COc1cccc(C2CC(=O)c3c(ccc4ccccc34)N2)c1OC (centres unmarked) [CBK262971] | 94.1
76 | NNC(=O)CNC(c1cc(Br)ccc1N)c1ccccc1Cl (centres unmarked) [CBK262977] | 87.1
77 | COc1ccc(OC)c(NC(=O)CN2CCN(c3ccccn3)CC2)c1 [CBK262978] | 83.7
78 | CC(CC(=O)C1C(C)C=CCC1(C)C)NNC(=O)c1ccccc1O (centres unmarked) [CBK262980] | 91.6
79 | CCOC(=O)c1c(NC(=O)CCN2C(=O)c3cccc4cccc(c34)C2=O)sc2c1CCC2 [CBK262982] | 111
80 | CCN(CC)CC(=O)Nc1ccc(Br)cc1C(=O)c1ccccc1 [CBK262983] | 109
81 | O=C(O)Cc1nnnn1-c1ccccc1 [CBK262984] | 102
82 | O=C1c2ccccc2NC(c2ccc(O)cc2)N1/N=C/c1ccc(O)cc1 (centres unmarked) [CBK262985] | 84.5

Same assay, conditions: human, hela cells, % viability, bulk resorufin, single well

Row | SMILES | viability at 28.5 h, 10 µM [%]
83 | Cn1c(=O)c2[nH]c(NN=C3C(=O)NC(=O)NC3=O)nc2n(C)c1=O [CBK262891] | 103
